Values quoted from earlier work, collected in patent US9932302B1, “N-phenyl and N-benzyl enaminones and methods for using same” (University of Maryland Eastern Shore, priority 2013, dated 2018).

How the values were obtained:
Conditions in all cases: pre-clinical pharmacological profile
[1] = system: maximal electroshock seizure (MES)
[2] = system: subcutaneous Metrazol (sc Met) induced seizure
[3] = system: 6 Hz psychomotor seizure

In the case of `O=C1NC(=O)C(c2ccccc2)(c2ccccc2)N1` [phenytoin], the “MES activity profile of current AED” value [1] is listed as “active” and the “scPTZ activity profile of current AED” value [2] is listed as “active”.

In the case of `CC[C@@H](C(N)=O)N1CCCC1=O` [levetiracetam], the “6 Hz activity profile of current AED” value [3] is listed as “active”.
